Assay results reported in the supplement of paper PMC10307832.

Key:
Assay in all cases: relative viability (nuclei count vs DMSO), 5 days (fraction); higher = more cells survive
Motesanib = compound: CC1(C)CNc2cc(NC(=O)c3cccnc3NCc3ccncc3)ccc21 [Motesanib]
Method in brief: (§1)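 For viability, nuclei in each treated well were divided by nuclei in vehicle wells and the median across plates was taken. Lung cancer cell lines in 1536-well plates were pinned with five library-drug doses (not always all listed) spaced by √10, cultured 5 days without medium change, and imaged at 4× after Hoechst staining, with plates passing only at control CV below 25% and at least one doubling.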

[1] = compound: C[C@@]1(C(=O)Nc2ccc(F)nc2)CCCN1c1nc(Nc2cc(C3CC3)n[nH]2)c2cccn2n1
Method in brief: as §1

[2] = compound: C[C@@]1(C(=O)Nc2ccc(F)nc2)CCCN1c1nc(Nc2cc(C3CC3)n[nH]2)c2cccn2n1 + Nc1nc2[nH]cc(CCc3ccc(C(=O)N[C@@H](CCC(=O)O)C(=O)O)cc3)c2c(=O)[nH]1 [Pemetrexed] (partner 0.2 µM)
Method in brief: (§2)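 For relative viability, nuclei counts in treated wells were divided by those in vehicle wells. Lung cancer cell lines had been pin-tool dosed in 1536-well plates the day after seeding and cultured for 5 days, then fixed and stained in one step (final 0.05% Triton X-100, 1% formaldehyde, 1 ug/ml Hoechst) and imaged at 4×. Doses were one drug alone or a fixed anchor-drug dose plus five library-drug doses (not always all listed) in √10 steps, and values are duplicate-plate medians.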

Motesanib + Alpelisib = compound: CC1(C)CNc2cc(NC(=O)c3cccnc3NCc3ccncc3)ccc21 [Motesanib] + Cc1nc(NC(=O)N2CCC[C@H]2C(N)=O)sc1-c1ccnc(C(C)(C)C(F)(F)F)c1 [Alpelisib] (partner 2 µM)
Method in brief: as §2

Row | Cell Line | relative viability (Motesanib; 0.01 µM) | relative viability (Motesanib; 0.03162 µM) | relative viability (Motesanib; 0.1 µM) | relative viability (Motesanib; 0.3162 µM) | relative viability (Motesanib; 1 µM) | relative viability ([1]; 0.04 µM) | relative viability ([1]; 0.1265 µM) | relative viability ([1]; 0.4 µM) | relative viability ([1]; 1.265 µM) | relative viability ([2]; first compound 0.04 µM) | relative viability ([2]; first compound 0.1265 µM) | relative viability ([2]; first compound 0.4 µM) | relative viability ([2]; first compound 1.265 µM) | relative viability (Motesanib + Alpelisib; first compound 0.01 µM) | relative viability (Motesanib + Alpelisib; first compound 0.03162 µM) | relative viability (Motesanib + Alpelisib; first compound 0.1 µM) | relative viability (Motesanib + Alpelisib; first compound 0.3162 µM) | relative viability (Motesanib + Alpelisib; first compound 1 µM)
1 | 201T | 0.982 | 0.971 | 1.02 | 0.987 | 0.963 | 0.955 | 0.833 | 0.682 | 0.796 | 0.324 | 0.285 | 0.294 | 0.304 | 1.08 | 1.05 | 1.01 | 0.857 | 1.06
2 | A549 | 0.951 | 0.958 | 1 | 1.01 | 1.02 | 0.869 | 0.693 | 0.509 | 0.589 |  |  |  |  | 0.785 | 0.866 | 0.728 | 0.779 | 0.909
3 | A-427 | 0.944 | 1.01 | 0.894 | 1.03 | 1.06 | 1.09 | 0.944 | 0.889 | 0.797 | 0.989 | 0.939 | 0.927 | 0.813 | 1.12 | 1.08 | 1.05 | 1.09 | 1.04
4 | ABC-1 | 0.919 | 0.938 | 0.863 | 1.09 | 0.97 | 0.884 | 0.738 | 0.51 | 0.507 |  |  |  |  | 1.02 | 0.995 | 1.24 | 0.974 | 1.18
5 | BEN | 0.902 | 0.964 | 0.927 | 0.998 | 1.19 | 1.09 | 0.959 | 0.935 | 0.929 | 0.919 | 0.65 | 0.616 | 0.653 | 1.07 | 1.08 | 0.897 | 0.972 | 1.18
6 | CAL-12T | 0.951 | 0.975 | 0.967 | 1.05 | 0.965 | 1.03 | 0.863 | 0.884 | 0.664 | 0.818 | 0.999 | 0.777 | 0.812 | 1.22 | 1.31 | 1.26 | 1.44 | 1.11
7 | COR-L23 | 1.01 | 0.962 | 1.03 | 1.04 | 1.07 | 1.13 | 0.985 | 0.886 | 0.774 | 0.203 | 0.198 | 0.173 | 0.183 | 0.719 | 0.783 | 0.802 | 0.736 | 0.781
8 | Calu-6 | 1 | 0.98 | 1 | 1.05 | 0.987 | 1.11 | 0.948 | 0.884 | 0.844 |  |  |  |  | 0.984 | 0.931 | 0.928 | 1.02 | 1.03
9 | ChaGo-K-1 | 0.973 | 0.931 | 0.932 | 0.999 | 1.04 | 0.955 | 0.826 | 0.899 | 0.914 | 0.252 | 0.253 | 0.273 | 0.258 |  |  |  |  | 
10 | EBC-1 | 1.01 | 0.927 | 1.01 | 1.03 | 0.954 | 1.01 | 0.772 | 0.769 | 0.664 |  |  |  |  | 0.795 | 0.914 | 0.899 | 0.847 | 0.925
11 | IA-LM | 0.927 | 1.03 | 0.957 | 1.04 | 0.941 | 1.05 | 1 | 0.863 | 0.861 |  |  |  |  | 0.616 | 0.788 | 0.711 | 0.891 | 0.746
12 | NCI-H522 | 0.939 | 1.01 | 1.06 | 1.06 | 1.07 | 0.925 | 0.836 | 0.754 | 0.878 | 0.832 | 1.25 | 0.706 | 0.933 |  |  |  |  | 
13 | NCI-H727 | 0.83 | 1 | 0.9 | 0.974 | 0.849 | 0.677 | 0.38 | 0.36 | 0.414 |  |  |  |  | 0.599 | 0.678 | 0.504 | 0.514 | 0.602
14 | NCI-H1299 | 1.01 | 0.999 | 1.04 | 1.02 | 1.05 | 1.05 | 0.954 | 1.02 | 1.04 |  |  |  |  | 1.03 | 1.09 | 1.15 | 1.11 | 1.12
15 | NCI-H1648 | 0.744 | 0.658 | 0.71 | 1.1 | 0.556 | 0.837 | 0.57 | 0.499 | 0.636 | 0.661 | 0.606 | 0.624 | 0.637 |  |  |  |  | 
16 | NCI-H1650 | 1.03 | 0.792 | 1.06 | 0.947 | 0.927 | 0.894 | 0.843 | 0.798 | 0.699 | 0.38 | 0.29 | 0.334 | 0.319 |  |  |  |  | 
17 | NCI-H1703 | 0.911 | 0.901 | 0.52 | 0.286 | 0.236 | 0.97 | 0.807 | 0.716 | 0.778 |  |  |  |  | 0.294 | 0.283 | 0.211 | 0.183 | 0.239
18 | NCI-H2342 | 0.902 | 0.976 | 1.05 | 0.928 | 1.06 | 1.16 | 0.863 | 0.805 | 0.7 | 0.819 | 0.725 | 0.579 | 0.664 |  |  |  |  | 
19 | SW 900 | 0.834 | 0.782 | 0.809 | 0.9 | 0.799 | 0.746 | 0.727 | 0.81 | 0.673 | 0.439 | 0.492 | 0.476 | 0.467 |  |  |  |  | 
